The values below are quoted from earlier work in publication PMC6311893, “Computational prediction of plasma protein binding of cyclic peptides from small molecule experimental data using sparse modeling techniques” (BMC Bioinformatics, 2018).

For one data set, the system named is plasma protein. The following applies: fraction bound to plasma protein; small molecule dataset, sheet 1-SM (Set Dte = test, Dtr = training); ref Ingle et al.; cited from earlier work.
Regarding `N[C@@H](C(=O)N[C@@H]1C(=O)N2C(C(=O)O)=C(Cl)CS[C@H]12)c1ccccc1` [cefaclor], the “PPB (fb)” value is reported as 0.25.

In the case of `C=CC1=C(C(=O)O)N2C(=O)[C@@H](NC(=O)/C(=N\O)c3csc(N)n3)[C@H]2SC1` [cefdinir], the “PPB (fb)” value is listed as 0.65.

On to `CO/N=C(\C(=O)N[C@@H]1C(=O)N2C(C(=O)OCOC(=O)C(C)(C)C)=C(/C=C\c3scnc3C)CS[C@H]12)c1csc(N)n1` [cefditoren-pivoxil], for which the “PPB (fb)” value was 0.88.

With `O=C(O)C1=C(CSc2nnnn2CS(=O)(=O)O)CS[C@@H]2[C@H](NC(=O)[C@H](O)c3ccccc3)C(=O)N12` [cefonicid], the “PPB (fb)” value is given as 0.98.

As to `COCC1=C(C(=O)OC(C)OC(=O)OC(C)C)N2C(=O)[C@@H](NC(=O)/C(=N\OC)c3csc(N)n3)[C@H]2SC1` (stereo partly shown) [cefpodoxime proxetil], the “PPB (fb)” value is listed as 0.29.

Regarding `Cc1ccc(-c2cc(C(F)(F)F)nn2-c2ccc(S(N)(=O)=O)cc2)cc1` [celecoxib], the “PPB (fb)” value is reported as 0.97.

Take `CCN(CC)C(=O)Nc1ccc(OCC(O)CNC(C)(C)C)c(C(C)=O)c1` (stereo not shown) [celiprolol]: the “PPB (fb)” value was 0.25.

`CC(=O)OCC1=C(C(=O)O)N2C(=O)[C@@H](NC(=O)CC#N)[C@H]2SC1` [cephacetrile]: the “PPB (fb)” value was 0.2.

For the compound `CC1OC2(CS1)CN1CCC2CC1` (stereo not shown) [cevimeline], the “PPB (fb)” value is on record as 0.15.

With `CN1CCN(C(c2ccccc2)c2ccc(Cl)cc2)CC1` (stereo not shown) [chlorcyclizine], the “PPB (fb)” value was 0.87.

Turning to `[H]/N=C(\N/C(=N/[H])Nc1ccc(Cl)cc1)NC(C)C` [chlorguanide], the “PPB (fb)” value was 0.85.

`CC(C)(O)C(Cl)(Cl)Cl` [chlorobutanol]: the “PPB (fb)” value is on record as 0.55.

For the compound `NS(=O)(=O)c1cc2c(cc1Cl)N=CNS2(=O)=O` [chlorothiazide], the “PPB (fb)” value is 0.7.

For `CN(C)CC/C=C1/c2ccccc2Sc2ccc(Cl)cc21` [chlorprothixene], the “PPB (fb)” value was 0.99.

As to `Cc1ncc2c(c1O)COC2c1ccc(Cl)cc1` (stereo not shown) [cicletanine], the “PPB (fb)” value is 0.93.

Consider `CCOC(=O)[C@H](CCc1ccccc1)N[C@H]1CCCN2CCC[C@@H](C(=O)O)N2C1=O` [cilazapril], for which the “PPB (fb)” value was 0.25.

For the compound `O=C1CCc2cc(OCCCCc3nnnn3C3CCCCC3)ccc2N1` [cilostazol], the “PPB (fb)” value was 0.96.

`COCC1CN(c2ccc(OCc3cccc(C#N)c3)cc2)C(=O)O1` (stereo not shown) [cimoxatone]: the “PPB (fb)” value was 0.94.

Turning to `CCn1nc(C(=O)O)c(=O)c2cc3c(cc21)OCO3` [cinoxacin], the “PPB (fb)” value is recorded as 0.64.

With `CC(C)(Oc1ccc(C2CC2(Cl)Cl)cc1)C(=O)O` (stereo not shown) [ciprofibrate], the “PPB (fb)” value is given as 0.95.

On to `COc1cc(N)c(Cl)cc1C(=O)NC1CCN(CCCOc2ccc(F)cc2)CC1OC` (stereo not shown) [cisapride], for which the “PPB (fb)” value was 0.98.

On to `O=C(O)[C@H]1/C(=C/CO)O[C@@H]2CC(=O)N21` [clavulanate], for which the “PPB (fb)” value is 0.23.

On to `O=P(O)(O)C(Cl)(Cl)P(=O)(O)O` [clodronic acid], for which the “PPB (fb)” value was 0.36.

Turning to `CCOC(=O)C(C)(C)Oc1ccc(Cl)cc1` [clofibrate], the “PPB (fb)” value is on record as 0.96.

With `CC(C)(Oc1ccc(Cl)cc1)C(=O)O` [clofibric acid], the “PPB (fb)” value is on record as 0.98.

For `C[C@@H]1CCC[C@H](C)N1NC(=O)c1ccc(Cl)c(S(N)(=O)=O)c1` [clopamide], the “PPB (fb)” value is listed as 0.5.

Consider `COC(=O)[C@H](c1ccccc1Cl)N1CCc2sccc2C1` [clopidogrel], for which the “PPB (fb)” value is reported as 0.98.

The same data set, now with this note: plasma; cited from earlier work.
Consider `OC(O)C(Cl)(Cl)Cl` [chloral-hydrate], for which the “PPB (fb)” value is 0.35.

As to `CN1C(=O)CCS(=O)(=O)C1c1ccc(Cl)cc1` (stereo not shown) [chlormezanone], the “PPB (fb)” value is on record as 0.5.

Consider `CC(C)(C)NCC(O)c1cc(Cl)c(N)c(Cl)c1` (stereo not shown) [clenbuterol], for which the “PPB (fb)” value is reported as 0.5.

`CN1C(=O)CC(=O)N(c2ccccc2)c2cc(Cl)ccc21` [clobazam]: the “PPB (fb)” value is on record as 0.92.
